We go through 6 compounds from patent US9945845B2, “Methods of screening using amphibians” (priority 2009, dated 2018).

The subject of data set [1] is Xenopus embryos. The following applies: for Embr. phen.: embryonic phenotype in the primary screen; for Lethality: — = no stage of lethality given; for Onset (NF): onset of edema. The method, boiled down: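 Stage 31 (37 hpf) Xenopus embryos, five per well, exposed to 20 µM compound in 1% DMSO at 23 °C for 4 days. Edema, lethality and other external phenotypes were scored daily by two investigators at stages 39, 41, 45 and 47.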

In data set [2] the test system is blood vessel development and/or lymphangiogenesis in Xenopus embryos. The format is in vivo, Xenopus laevis. The following applies: for ISV phenotype: intersomitic vessels; for PCV phenotype: posterior cardinal vein; for VVN phenotype: vitelline vein network; for blood vessel development phenotype (apj expression, in words): 20 μM from stage 31, fixed at stage 35/36; for lymph vessel development phenotype (vegfr3 expression, in words): 20 μM from stage 31, fixed at stage 42; for ALH phenotype: anterior lymph heart; for ALS phenotype: anterior lymph sac; for PLV phenotype: posterior lymph vessels. The method, boiled down:
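Albino Xenopus embryos treated at 20 μM final (from 10-mM DMSO stocks) in screening medium, 7 per well, from stage 31 (37 hpf) to stage 35/36 (50 hpf) or 42 (80 hpf). Fixed in 4% paraformaldehyde and scored by whole-mount in situ hybridization: vasculogenesis and intersomitic vein angiogenesis at stage 35/36, lymph vessel development at stage 42.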

In data set [3] the test system is HUVEC. The data set is described as follows: HUVEC cell proliferation assay. The data set is classed as cell-based, human. As to conditions: 10 μM in 0.1% DMSO, 48 hours; for activity at 10 µM: Homo sapiens, HUVEC, 48 h, read-out: HUVEC proliferation. The method, then:
(§1) Human umbilical vein endothelial cells (HUVEC) were purchased from PromoCell. […] HUVEC and LEC were cultured in endothelial basal medium EBM (Cambrex) supplemented with 20% fetal bovine serum (Invitrogen), antibiotic-antimycotics (100 U/ml penicillin, 100 μg/ml streptomycin, 250 ng/ml amphotericin; Invitrogen). 2 mM L-glutamine (Invitrogen), 10 μg/ml hydrocortisone (Fluka) and 25 μg/ml N^6,2′-O-dibutyryladenosine 3′,5′-cyclic monophosphate sodium salt (Fluka) for up to eleven passages.
(§2) The intensity of fluorescence, which is proportional to the number of viable cells, was measured using a microplate reader (SpectraMax Gemini EM; Molecular Devices). The chemical treatments were performed in five replicates.
(§3) The cell proliferation assays were performed by treating the endothelial cell cultures with compounds at a screening dose of 10 μM in 0.1% DMSO for 48 hours (FIG. 6a; Table 10).

The test system of data set [4] is LEC. The data set is described as follows: LEC cell proliferation assay. The data set is classed as cell-based, human. As to conditions: 10 μM in 0.1% DMSO, 48 hours; for activity at 10 µM: Homo sapiens, 48 h, read-out: LEC proliferation. The procedure: as §1, §2, §3
In data set [5] the test system is HUVEC. The data set can be described thus: HUVEC tube formation assay. The data set is classed as cell-based, human. The following applies: 1 μM in 0.1% DMSO; for activity at 1 µM: Homo sapiens, HUVEC. The method, then: as §1
(§4) The effect of the selected chemicals on the formation of tube-like structures was performed as follows. […] After overnight incubation at 37° C. the treated cell cultures were fixed with 4% paraformaldehyde. Each chemical treatment was performed in triplicate and the experiment was repeated at least three times. Three representative images of hotspots with tube-like structures were taken per well using a digital camera (AxioCam MRm, Carl Zeiss) mounted on an inverted microscope (Axiovert 200M, Carl Zeiss). The length of the tube-like structures was measured using the IPLab software (BD Biosciences). For each experimental condition, results are represented as average total tube length (μm) per area (three image fields).
(§5) The effects of the selected compounds on endothelial tube formation was assessed after over treatment of LEC and HUVEC cultures at a compound concentration of 1 μM in 0.1% DMSO. The length of the tube-like structures was measured using the IPLab software.

Data set [6] relates to LEC. The data set is described as follows: cells. The following applies: 1 μM in 0.1% DMSO; for activity at 1 µM: Homo sapiens. The format is cell-based, human. The method, then:
as §1, §4, §5

Where [7] appears, read: compounds causing edema, 20 μM, 1% DMSO, treatment from stage 31, scored to stage 47.
[8] abbreviates: 20 μM, 1% DMSO, treatment from stage 31, Nieuwkoop & Faber stage.
Where [9] appears, read: overnight, read-out: HUVEC tube formation.
The mark [10] stands for this setting: read-out: HUVEC tube formation (tube length).
[11] abbreviates: overnight, read-out: LEC tube formation.
Where [12] appears, read: read-out: LEC tube formation (tube length).

Like-named read-outs stand apart in the source and are kept apart here.

Take `COc1cc2c(cc1O)CC[C@@H]1[C@@H]2CC[C@]2(C)[C@@H](O)CC[C@@H]12` [2-methoxyestradiol, 2-Hydroxyestradiol 2-methyl ether]: the “scored in the phenotypic Xenopus screens” value in data set [1] (20 μM, known antiangiogenic compounds) was “active”. The “Lethality (NF)” value in data set [1] (setting [7]) was 33/34. In data set [1], the Embr. phen. entry was “EDE”. In data set [1] (embryonic stage), the “Type of edema Pericordial” value is listed as 33/34 and the Lethality is 33/34. Moreover, in data set [1] (setting [8]), the “Onset (NF)” value is listed as 33/34. Besides, in data set [2] (Xenopus embryos), the ISV phenotype result is “impaired”, the PCV phenotype result is given as “hypoplastic” and the VVN phenotype result is “hypoplastic”. The HUVEC proliferation result in data set [3] is “O (O, inactive or marginal effects (85-115% of control);)”. Further, in data set [4], the LEC proliferation result is “− (−, moderate inhibition (50-85% of control):)” and the “effect on LEC proliferation (in words)” value is “inhibited preferentially LEC proliferation”. In data set [5], the “HUVEC tube formation (tube length)” value is listed as 40 % of control and the “effect on HUVEC tube formation (in words)” value is reported as “blocked tube formation preferentially in HUVEC cultures”. The HUVEC tube formation result in data set [5] (overnight) is recorded as “− − (− −, strong inhibition (<50% of control);)”. For the same compound, in data set [6], the “LEC tube formation (tube length)” value is listed as 80 % of control. Also, the LEC tube formation result in data set [6] (overnight) is recorded as “− (−, moderate inhibition (50-85% of control):)”.

Take `Nc1ccc2c3c(cccc13)C(=O)NC2=O` [4-Amino-1,8-naphthalimide]: in data set [1], the Embr. phen. result is on record as “EDE”. In data set [1] (embryonic stage), the “Type of edema Pericordial” value was 41/42; the “Type of edema Proctodeal” value was 47 embryonic stages according to Nieuwkoop and Faber (NF). In data set [1] (embryonic stage, * = causing bulging eyes, # = bilateral, causing narrow-set eyes), the “Type of edema Periocular” value is on record as 41/42*. In addition, the “Onset (NF)” value in data set [1] (setting [8]) is on record as 41/42. For the same compound, in data set [2], the “blood vessel development phenotype (apj expression, in words)” value (shortened to “blood vessel development phenotype”) was “hyperplasia of the VVN, while ISV angiogenesis occurred unaffected” and the “lymph vessel development phenotype (vegfr3 expression, in words)” value (from here on “lymph vessel development phenotype”) is “lymphangiogenesis was largely suppressed”. In addition, in data set [2] (Xenopus embryos), the ALH phenotype result is reported as “stunted”, the ALS phenotype result is reported as “impaired”, the ISV phenotype result was “normal” and the PCV phenotype entry was “normal”. In addition, in data set [2] (Xenopus embryos), the PLV phenotype entry is recorded as “hypoplastic” and the VVN phenotype result is “hyperplastic”. The HUVEC proliferation result in data set [3] is “+ (+, moderate promotion (>115-150% of control).)”. Besides, in data set [4], the LEC proliferation result was “O (O, inactive or marginal effects (85-115% of control);)”. Further, in data set [5] (overnight), the HUVEC tube formation entry is “O (O, inactive or marginal effects (85-115% of control);)”. In addition, the “effect on LEC tube formation (in words)” value in data set [6] is on record as “preferentially blocked tube formation in LEC rather than HUVEC cultures”. For the same compound, the LEC tube formation entry in data set [6] (overnight) is reported as “− (−, moderate inhibition (50-85% of control):)”.

In the case of `Nc1ncnc2c1c(-c1ccc(Oc3ccccc3)cc1)cn2C1CCCC1` [7-Cyclopentyl-5-(4-phenoxy)phenyl-7H-pyrrolo[2,3-d]pyrimidin-4-ylamine], in data set [1] (setting [7]), the “Lethality (NF)” value is reported as 45 NF. For the same compound, in data set [1], the Embr. phen. result is “EDE”. In addition, in data set [1] (embryonic stage), the “Type of edema Pericordial” value is on record as 41/42; the “Type of edema Pronephric” value was 41/42; the Lethality is 45 embryonic stages according to Nieuwkoop and Faber (NF). The “Onset (NF)” value in data set [1] (setting [8]) is given as 41/42. For the same compound, in data set [2], the “blood vessel development phenotype” value was “interfered with angiogenic ISV sprouting but not with VVN assembly” and the “lymph vessel development phenotype” value is “lymphangiogenesis was strongly suppressed”. For the same compound, in data set [2] (Xenopus embryos), the ALH phenotype entry is reported as “impaired”, the ALS phenotype entry is given as “impaired”, the ISV phenotype entry was “stunted” and the PCV phenotype entry was “normal”. In addition, in data set [2] (Xenopus embryos), the PLV phenotype entry is listed as “hypoplastic” and the VVN phenotype entry is “normal”. Also, in data set [3], the HUVEC proliferation entry was “O (O, inactive or marginal effects (85-115% of control);)”. For the same compound, the LEC proliferation entry in data set [4] was “O (O, inactive or marginal effects (85-115% of control);)”. In data set [5] (overnight), the HUVEC tube formation result was “− − (− −, strong inhibition (<50% of control);)”. The LEC tube formation result in data set [6] (overnight) is given as “− − (− −, strong inhibition (<50% of control);)”.

`O=c1c(-c2ccc(O)cc2)coc2cc(O)cc(O)c12` [Genistein, 5,7-Dihydroxy-3-(4-hydroxyphenyl)-4H-1-benzopyran-4-one]: in data set [1] (20 μM, 1% DMSO, treatment from stage 31), the “edema or other phenotype in compound-treated Xenopus embryos/tadpoles (in words)” value is reported as “edemas localized to the tail tip”. Further, the “Lethality (NF)” value in data set [1] (setting [7]) was 46 NF. Besides, in data set [1] (embryonic stage), the “Type of edema Tail tip” value is on record as 35/36 and the Lethality is 41/42. Besides, the “Onset (NF)” value in data set [1] (setting [8]) is listed as 35/36. In data set [2], the “blood vessel development phenotype” value was “stunted ISVs and hyperplastic VVN”; the “lymph vessel development phenotype” value was “lymphatic vessels and LECs were absent”. In data set [2] (Xenopus embryos), the ALH phenotype result is on record as “impaired”, the ALS phenotype result is reported as “impaired”, the ISV phenotype result is reported as “stunted” and the PCV phenotype entry is “normal”. Besides, in data set [2] (Xenopus embryos), the PLV phenotype entry is “impaired” and the VVN phenotype entry was “hyperplastic”. In data set [3], the activity at 10 µM was 85 to 115%. In addition, the activity at 10 µM in data set [4] was 85 to 115%. Moreover, in data set [5] (setting [9]), the activity at 1 µM fell in the range of 50 to 85%. In addition, in data set [5] (setting [10]), the activity at 1 µM was 50 to 85%. Also, the activity at 1 µM in data set [6] (setting [11]) fell in the range of 50 to 85%. Moreover, in data set [6] (setting [12]), the activity at 1 µM is 50 to 85%.

With `COc1cc(OC)c(C=C2C(O)=Nc3ccccc32)c(OC)c1` [IC 261, 1,3-Dihydro-3-[(2,4,6-trimethoxyphenyl)methylene]-2H-indol-2-one], the “Lethality (NF)” value in data set [1] (setting [7]) was 41/42. Further, in data set [1] (embryonic stage), the “Type of edema Pericordial” value is listed as 35/36, the “Type of edema Proctodeal” value is on record as 41/42, the “Type of edema Pronephric” value is 41/42 and the Lethality is 41/42. The “Onset (NF)” value in data set [1] (setting [8]) is on record as 35/36. In data set [2], the “blood vessel development phenotype” value is “interfered with blood vessel vasculogenesis and PCV assembly”. Further, in data set [2] (Xenopus embryos), the ISV phenotype result is “impaired”, the PCV phenotype entry is “hypoplastic” and the VVN phenotype result was “hypoplastic”. Besides, in data set [3], the activity at 10 µM lay in the range of 85 to 115%. In addition, in data set [4], the “effect on LEC proliferation (in words)” value is recorded as “inhibited preferentially LEC proliferation” and the activity at 10 µM is 50 to 85%. For the same compound, in data set [5] (setting [9]), the activity at 1 µM was in the range of 50 to 85%. The activity at 1 µM in data set [5] (setting [10]) lay within 50 to 85%. In addition, the activity at 1 µM in data set [6] (setting [11]) was in the range of 50 to 85%. Further, the activity at 1 µM in data set [6] (setting [12]) was in the range of 50 to 85%.

On to `CCCCOC(=O)NS(=O)(=O)c1sc(CC(C)C)cc1-c1ccc(Cn2c(CC)nc3c(C)cc(C)nc32)cc1` [L-162,313], for which, in data set [1] (compounds causing lethality, 20 μM, 1% DMSO, treatment from stage 31, Nieuwkoop & Faber stage), the “Lethality (NF)” value came out at 45 NF. Moreover, the Embr. phen. entry in data set [1] was “LET”. The “blood vessel development phenotype” value in data set [2] was “potent inhibitors of developmental angiogenesis”. For the same compound, in data set [2] (Xenopus embryos), the Lymphatic phenotype result was “normal”, the ISV phenotype result is “impaired”, the PCV phenotype result is recorded as “normal” and the VVN phenotype result was “hypoplastic”. Also, in data set [3], the HUVEC proliferation result is reported as “+ (+, moderate promotion (>115-150% of control).)”. The LEC proliferation result in data set [4] was “O (O, inactive or marginal effects (85-115% of control);)”. Moreover, the HUVEC tube formation result in data set [5] (overnight) is given as “− (−, moderate inhibition (50-85% of control):)”. Moreover, in data set [6] (overnight), the LEC tube formation entry is on record as “− (−, moderate inhibition (50-85% of control):)”.
